According to ChEMBL document CHEMBL1201862, “PubChem BioAssay data set” (2004):
Values belong to the molecule of their own block, whether it stands above or below them. Activity calls are given as the source filed them.

Tests used:
Caspase-3 = target: T1, Caspase-3 (Homo sapiens, UniProt P42574); assay type: functional;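 also: Dose-response selectivity test against caspase-3 for candidate inhibitors of sentrin-specific proteases (SENPs)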
T1 sequence (P42574 whole entry): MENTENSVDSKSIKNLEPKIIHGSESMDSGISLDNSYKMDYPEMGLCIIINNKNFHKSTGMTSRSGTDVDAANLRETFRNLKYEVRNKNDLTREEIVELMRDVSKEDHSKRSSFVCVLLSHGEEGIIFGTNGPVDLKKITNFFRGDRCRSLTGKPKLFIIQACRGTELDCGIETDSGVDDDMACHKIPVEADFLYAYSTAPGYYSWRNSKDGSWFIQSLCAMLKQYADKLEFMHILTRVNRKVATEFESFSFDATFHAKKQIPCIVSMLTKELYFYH

[1] = target: T2, Sentrin-specific protease 6 (Homo sapiens, UniProt Q9GZR1); assay type: functional;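 also: Luminescence-based dose-response confirmatory assay of SENP6 inhibition, following up an ultra-high-throughput screen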
T2 sequence (Q9GZR1 whole entry): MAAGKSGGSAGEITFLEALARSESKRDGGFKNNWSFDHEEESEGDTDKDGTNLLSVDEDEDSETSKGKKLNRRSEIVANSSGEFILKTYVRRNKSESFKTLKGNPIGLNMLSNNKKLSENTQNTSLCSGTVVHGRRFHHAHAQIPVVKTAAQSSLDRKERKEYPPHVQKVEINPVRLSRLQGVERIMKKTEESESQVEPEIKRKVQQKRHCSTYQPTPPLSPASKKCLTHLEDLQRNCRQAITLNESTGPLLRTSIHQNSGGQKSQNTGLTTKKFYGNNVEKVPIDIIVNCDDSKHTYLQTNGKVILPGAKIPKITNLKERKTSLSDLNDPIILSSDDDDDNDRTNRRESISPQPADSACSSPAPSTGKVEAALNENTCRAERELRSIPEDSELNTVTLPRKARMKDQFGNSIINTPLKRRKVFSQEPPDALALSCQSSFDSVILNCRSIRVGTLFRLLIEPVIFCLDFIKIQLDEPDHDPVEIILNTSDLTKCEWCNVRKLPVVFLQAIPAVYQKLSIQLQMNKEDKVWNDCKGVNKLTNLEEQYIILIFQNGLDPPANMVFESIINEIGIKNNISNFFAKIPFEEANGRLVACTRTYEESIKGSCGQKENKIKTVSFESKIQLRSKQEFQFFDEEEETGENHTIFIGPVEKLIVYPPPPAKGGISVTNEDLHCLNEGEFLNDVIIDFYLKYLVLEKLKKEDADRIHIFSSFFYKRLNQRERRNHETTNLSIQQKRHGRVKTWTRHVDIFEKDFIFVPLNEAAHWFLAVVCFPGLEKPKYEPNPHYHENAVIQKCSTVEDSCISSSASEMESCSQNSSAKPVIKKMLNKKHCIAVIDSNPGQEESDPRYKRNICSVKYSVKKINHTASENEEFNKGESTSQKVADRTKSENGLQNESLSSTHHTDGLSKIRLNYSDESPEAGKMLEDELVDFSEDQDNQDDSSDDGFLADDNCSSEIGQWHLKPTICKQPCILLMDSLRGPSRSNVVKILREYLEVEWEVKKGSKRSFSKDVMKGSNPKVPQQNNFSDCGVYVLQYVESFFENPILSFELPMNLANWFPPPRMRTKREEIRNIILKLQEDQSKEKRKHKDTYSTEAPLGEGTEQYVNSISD

[2] = target: T3, Sentrin-specific protease 8 (Homo sapiens, UniProt Q96LD8); assay type: functional;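 also: luminescence read-out of SENP8 inhibition, dose-response confirmation following an ultra-high-throughput screen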
T3 sequence (Q96LD8 whole entry): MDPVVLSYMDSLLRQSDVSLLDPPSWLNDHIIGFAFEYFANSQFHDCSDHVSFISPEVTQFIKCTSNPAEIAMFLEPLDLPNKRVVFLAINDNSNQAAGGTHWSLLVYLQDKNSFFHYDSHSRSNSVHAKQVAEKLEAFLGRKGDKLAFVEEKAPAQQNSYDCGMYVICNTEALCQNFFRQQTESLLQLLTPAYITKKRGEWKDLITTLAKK

[3] = target: T4, Sentrin-specific protease 7 (Homo sapiens, UniProt Q9BQF6); assay type: functional;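 also: Luminescence-based dose-response confirmation of ultra-high-throughput screening hits, measuring inhibition of SENP7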
T4 sequence (Q9BQF6 whole entry): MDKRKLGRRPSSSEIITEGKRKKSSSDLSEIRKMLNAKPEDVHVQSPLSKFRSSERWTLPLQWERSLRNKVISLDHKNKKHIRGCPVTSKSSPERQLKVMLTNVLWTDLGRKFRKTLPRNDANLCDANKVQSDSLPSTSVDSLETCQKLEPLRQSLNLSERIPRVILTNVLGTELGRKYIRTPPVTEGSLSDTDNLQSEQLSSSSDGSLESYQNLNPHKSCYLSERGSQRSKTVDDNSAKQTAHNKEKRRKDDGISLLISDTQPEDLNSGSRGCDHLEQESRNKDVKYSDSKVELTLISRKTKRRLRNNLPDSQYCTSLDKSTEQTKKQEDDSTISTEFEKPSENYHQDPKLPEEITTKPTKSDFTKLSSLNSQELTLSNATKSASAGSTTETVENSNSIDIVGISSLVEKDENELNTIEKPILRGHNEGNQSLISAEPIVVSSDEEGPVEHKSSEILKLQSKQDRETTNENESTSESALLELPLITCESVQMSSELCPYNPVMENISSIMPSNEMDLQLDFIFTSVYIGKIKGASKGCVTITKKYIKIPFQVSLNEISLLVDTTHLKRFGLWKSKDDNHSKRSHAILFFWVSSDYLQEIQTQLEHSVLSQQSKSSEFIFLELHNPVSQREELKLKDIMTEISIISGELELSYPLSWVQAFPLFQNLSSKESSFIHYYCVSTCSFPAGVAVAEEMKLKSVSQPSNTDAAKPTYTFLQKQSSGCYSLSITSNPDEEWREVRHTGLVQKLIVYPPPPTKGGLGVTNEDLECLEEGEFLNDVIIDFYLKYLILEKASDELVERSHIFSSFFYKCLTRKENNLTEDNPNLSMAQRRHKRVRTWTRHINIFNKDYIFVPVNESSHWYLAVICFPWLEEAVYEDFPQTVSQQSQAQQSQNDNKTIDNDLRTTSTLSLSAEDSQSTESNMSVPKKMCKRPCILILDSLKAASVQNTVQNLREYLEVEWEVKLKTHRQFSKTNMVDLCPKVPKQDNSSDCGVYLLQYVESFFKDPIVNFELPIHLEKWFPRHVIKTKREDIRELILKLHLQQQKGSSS

[4] = cytotoxicity toward DRD oncogenic fibroblasts, dose response, cell-based, non-viral oncogenic, luminescence (AID 1934); assay type: functional; conditions: Homo sapiens
BJ [5] = test: cytotoxicity toward Ras-transformed BJeLR fibroblasts, dose response, cell-based, alamar blue fluorescence, cherrypicked samples (AID 2631); assay type: functional; conditions: Homo sapiens;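 also: confirmatory dose-response assay in RAS-dependent BJ fibroblasts engineered with TERT, LT and ST, with cytotoxicity read by fluorescence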
BJ [6] = test: cells; assay type: functional, cell-based; conditions: Homo sapiens
BJ [7] = test: cytotoxicity toward BJ-TERT fibroblasts, dose response, cell-based, RAS-independent, luminescence (AID 1933); assay type: functional; conditions: Homo sapiens
BJ [8] = test: cytotoxicity toward BJ-TERT-LT-ST fibroblasts, dose response, cell-based, RAS-independent, luminescence (AID 1935); assay type: functional; conditions: Homo sapiens;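 also: BJ fibroblasts immortalized with TERT plus LT and ST oncogenes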
INS1 = test: beta cell apoptosis inhibitors, cytokine rescue, dose response, luminescence, retest (AID 449756); assay type: functional, cell-based; conditions: Rattus norvegicus;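 also: cell death triggered by IL-1 beta plus TNF-alpha plus IFN-gamma mixture; protective hits raise ATP signal compared with cytokine alone wells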
HEK293 = test: inhibitors of LMP1-driven NF-kB reporter, dose response, cell-based, HEK293, luciferase, cherry-pick (AID 588343); assay type: functional; conditions: Homo sapiens
[9] = target: T5, Rac GTPase-activating protein 1 (Homo sapiens, UniProt Q9H0H5); test: MgcRacGAP GTPase-activating activity inhibitors, confirmation, biochemical, ADP Hunter fluorescence, primary and confirmatory (AID 624330); assay type: functional
T5 sequence (Q9H0H5 whole entry): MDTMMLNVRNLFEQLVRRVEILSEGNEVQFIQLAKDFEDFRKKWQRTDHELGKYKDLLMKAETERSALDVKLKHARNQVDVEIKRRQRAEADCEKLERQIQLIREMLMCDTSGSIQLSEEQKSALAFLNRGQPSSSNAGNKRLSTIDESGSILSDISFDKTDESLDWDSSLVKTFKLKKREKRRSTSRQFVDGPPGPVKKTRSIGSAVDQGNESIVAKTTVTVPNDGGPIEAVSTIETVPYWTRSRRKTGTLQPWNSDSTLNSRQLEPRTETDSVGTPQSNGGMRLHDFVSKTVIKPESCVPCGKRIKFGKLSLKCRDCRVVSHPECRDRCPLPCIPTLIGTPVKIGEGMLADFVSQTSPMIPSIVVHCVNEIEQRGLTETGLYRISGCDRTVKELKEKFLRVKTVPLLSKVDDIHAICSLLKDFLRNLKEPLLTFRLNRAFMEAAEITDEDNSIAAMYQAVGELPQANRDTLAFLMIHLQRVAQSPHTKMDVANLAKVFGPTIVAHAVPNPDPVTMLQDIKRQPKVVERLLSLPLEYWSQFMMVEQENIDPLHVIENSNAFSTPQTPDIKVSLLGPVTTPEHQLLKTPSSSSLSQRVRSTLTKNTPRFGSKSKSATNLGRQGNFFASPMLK

Jurkat = test: antigen receptor-induced NF-kB inhibitors, dose response, Jurkat, luciferase reporter, luminescence, B- and T-cell (AID 489004); assay type: functional, cell-based; conditions: Homo sapiens;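 also: NF-kB luciferase reporter Jurkat cells stimulated with PMA plus ionomycin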
[10] = cytotoxicity in HEK-293T NF-kB-Luc cells, dose response, cytotoxicity control for B/T-cell NF-kB inhibitor project, cell-based, uHTS hits (AID 489019); assay type: functional;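 also: IC50 reflects cytotoxicity as loss of cell viability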
Large T antigen = Large T antigen (Simian virus 40, UniProt P03070); assay type: functional, Betapolyomavirus macacae;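 also: Confirmatory-stage PubChem screen for compounds that inhibit SV40 T antigen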
[11] = target: T6, Nuclear receptor subfamily 0 group B member 1 (Homo sapiens, UniProt P51843); assay type: functional, cell-based;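 also: HEK293T cells transfected with SF-1 and DAX-1 plus StAR promoter luciferase reporter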
T6 sequence (P51843 whole entry): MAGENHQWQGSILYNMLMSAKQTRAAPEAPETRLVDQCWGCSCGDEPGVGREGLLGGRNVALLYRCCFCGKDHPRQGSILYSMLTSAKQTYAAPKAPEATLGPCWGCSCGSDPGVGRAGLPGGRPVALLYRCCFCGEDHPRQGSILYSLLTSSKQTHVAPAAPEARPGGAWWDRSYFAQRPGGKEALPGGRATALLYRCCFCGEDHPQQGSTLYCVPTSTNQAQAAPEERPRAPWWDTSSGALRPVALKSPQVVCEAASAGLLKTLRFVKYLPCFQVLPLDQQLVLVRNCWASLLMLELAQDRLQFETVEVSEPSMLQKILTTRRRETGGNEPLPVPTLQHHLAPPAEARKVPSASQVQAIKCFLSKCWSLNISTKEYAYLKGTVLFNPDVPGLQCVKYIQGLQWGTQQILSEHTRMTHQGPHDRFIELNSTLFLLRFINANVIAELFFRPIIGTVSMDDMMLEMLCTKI

[12] = LGR2 antagonists, dose response, cell-based, HEK293, CRE-luciferase reporter, cherry pick, set 2 (AID 743343); assay type: functional;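 also: transfected cells were stimulated with diluted bursicon conditioned medium after compound addition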
[13] = MC4R antagonists, dose response, counter-screen for LGR2 antagonist project, cell-based, plate reader, cherry pick (AID 743444); assay type: functional;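 also: transfected HEK 293 cells stimulated with alpha-MSH peptide; potency of inhibitors of the alpha-MSH evoked signal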
cells = assay type: functional, cell-based
[14] = A549 cell cytotoxicity, dose response, cytotoxicity control, plate reader, cherry-pick, antagonist series (AID 743412); assay type: functional, cell-based
[15] = target: T7, Microphthalmia-associated transcription factor (Homo sapiens, UniProt O75030); test: TRPM1 promoter luciferase signal decrease, dose response, MITF inhibitor project, cell-based, SK-MEL-5, cherry-picked, set 3 (AID 493073); assay type: functional
T7 sequence (O75030 whole entry): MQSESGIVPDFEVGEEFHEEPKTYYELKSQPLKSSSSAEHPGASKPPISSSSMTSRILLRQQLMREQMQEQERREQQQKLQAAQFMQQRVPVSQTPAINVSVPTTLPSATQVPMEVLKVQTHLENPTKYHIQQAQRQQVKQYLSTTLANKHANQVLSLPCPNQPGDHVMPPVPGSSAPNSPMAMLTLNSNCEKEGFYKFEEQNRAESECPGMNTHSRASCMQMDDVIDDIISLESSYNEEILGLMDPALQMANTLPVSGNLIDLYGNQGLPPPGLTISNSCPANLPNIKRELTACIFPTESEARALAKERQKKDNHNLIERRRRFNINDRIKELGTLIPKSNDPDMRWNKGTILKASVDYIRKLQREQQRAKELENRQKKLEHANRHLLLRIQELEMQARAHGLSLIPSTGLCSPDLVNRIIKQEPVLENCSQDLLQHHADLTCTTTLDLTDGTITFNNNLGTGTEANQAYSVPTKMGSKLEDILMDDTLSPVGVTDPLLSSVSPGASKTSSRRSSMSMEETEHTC

Large T antigen, sequence (P03070 whole entry): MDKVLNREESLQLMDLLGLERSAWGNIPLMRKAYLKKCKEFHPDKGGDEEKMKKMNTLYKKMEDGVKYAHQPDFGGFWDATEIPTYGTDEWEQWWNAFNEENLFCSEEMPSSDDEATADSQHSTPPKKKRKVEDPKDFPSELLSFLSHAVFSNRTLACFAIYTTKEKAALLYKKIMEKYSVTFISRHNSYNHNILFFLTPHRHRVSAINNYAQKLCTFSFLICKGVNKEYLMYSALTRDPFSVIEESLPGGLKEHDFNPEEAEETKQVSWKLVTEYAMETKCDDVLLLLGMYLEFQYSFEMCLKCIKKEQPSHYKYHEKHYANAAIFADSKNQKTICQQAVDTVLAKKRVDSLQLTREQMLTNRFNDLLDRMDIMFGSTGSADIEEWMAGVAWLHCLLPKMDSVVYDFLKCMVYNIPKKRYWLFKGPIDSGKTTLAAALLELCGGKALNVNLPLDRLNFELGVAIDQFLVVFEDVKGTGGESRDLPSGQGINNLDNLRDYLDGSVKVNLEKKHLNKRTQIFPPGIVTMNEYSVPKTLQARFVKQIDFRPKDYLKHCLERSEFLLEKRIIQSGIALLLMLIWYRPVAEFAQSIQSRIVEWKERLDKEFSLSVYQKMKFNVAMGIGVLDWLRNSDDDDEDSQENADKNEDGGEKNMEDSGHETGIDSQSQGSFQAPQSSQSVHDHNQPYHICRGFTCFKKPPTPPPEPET

- IC50 (Caspase-3): 66.5 µM (active)
- IC50 [1]: > 100 µM (inactive)
- IC50 [3]: 4.7 µM (active)
SMILES: Cc1ccc(CNc2c([N+](=O)[O-])nn(-c3ccc4c(c3)OCCO4)[n+]2[O-])cc1
- IC50 [2]: > 100 µM (inactive)

SMILES: O=S(=O)(c1ccc(NC(=S)NCc2cccnc2)cc1)N1CCCCC1
- EC50 [4]: 20.5 µM (active)
- EC50 (BJ [5]): 0.623 µM (active)
- EC50 (BJ [6]): 0.594 µM (inconclusive)
- EC50 (BJ [7]): > 150 µM (not active)
- EC50 (BJ [8]): 0.767 µM (active)
- AC50 (INS1): 1.11 µM (active)

SMILES: COc1cc(/C=N/NC(=S)Nc2cccc(C(=O)O)c2)ccc1O
- AC50 (HEK293): 1.9 µM (active)
- IC50 [9]: 44.9 µM (active)
- IC50 (Jurkat): 7.92 µM (active)
- IC50 [10]: > 80 µM (inactive)
- IC50 (Large T antigen): 22.1 µM (active)

- IC50 (Caspase-3): 28.3 µM (active)
- IC50 [1]: 28.9 µM (active)
- IC50 [3]: 7.4 µM (active)
SMILES: CC(C)(C)C(=O)OCc1nc(-c2ccc(F)cc2)cs1
- IC50 [2]: 55.3 µM (active)

SMILES: CCOc1ccc(C(=O)Nc2nnc(SCC(=O)NCC3CCCO3)s2)cc1 (stereo not given)
- IC50 [11]: > 67.5 µM (inactive)
- AC50 [12]: 3.43 µM (active)
- AC50 [13]: 3.95 µM (active)
- AC50 (HEK293): 1.52 µM (active)
- IC50 (cells): > 67.5 µM (inactive)
- AC50 [14]: > 52 µM (inactive)

- IC50 (Caspase-3): 24.9 µM (active)
- IC50 [1]: 3.99 µM (active)
- IC50 [3]: 3.15 µM (active)
SMILES: CC(=O)Oc1cccc(/C=C2\Sc3ccccc3C2=O)c1
- IC50 [2]: 3.32 µM (active)

SMILES: COc1cc(OC)cc(C(=O)N[C@H](C(=O)Nc2nc3ccccc3[nH]2)C(C)C)c1
- AC50 [15]: 2.44 µM (active)
- EC50 [4]: 1.91 µM (active)
- EC50 (BJ [5]): 0.553 µM (active)
- EC50 (BJ [6]): 2.73 µM (active)
- EC50 (BJ [7]): 1.48 µM (inconclusive)
- EC50 (BJ [8]): 1.51 µM (inconclusive)
